Data reported in patent publication US10874686B2, “Anthranilyl-adenosinemonosulfamate analogs and uses thereof” (Memorial Sloan-Kettering Cancer Center, priority 2015, dated 2020).
Like-named read-outs stand apart in the source and are kept apart here.

How the values were obtained:
[1] = Pharmacokinetics in mice, plasma and lung; assay type: in vivo; details: 10 mg/kg intraperitoneal
Procedure: Twenty-four female mice were weighed and administered anthranilyl-AMS intraperitoneally at 10 mg/kg dose. The animals assigned for 24 hours sampling after dosing were kept in metabolic cages to collect urine and feces at an interval of 0 to 4, 4 to 8, and 8 to 24 hours. Approximately 60 μL of blood samples were collected from retro orbital plexus at 0.08, 0.25, 0.5, 1, 2, 4, 8, and 24 hours following i.p. administration. The blood samples were collected from three mice under light isoflurane anesthesia at each time point in labeled micro centrifuge tube containing K2EDTA solution. Blood samples were centrifuged at 4000 rpm for 10 minutes at 4±2° C. Immediately after plasma collection the animals were humanely euthanized by carbon dioxide asphyxiation, and lung samples were collected from each mouse at 0.08, 0.25, 0.5, 1, 2, 4, 8, and 24 hours. The tissue samples were then homogenized using ice-cold phosphate buffer saline (pH 7.4), and the total homogenate volume was three times of the tissue weight. The collected feces were weighed and homogenized with 9 volumes of ice-cold phosphate buffer saline (pH 7.4), and homogenates were stored below −70° C. until analysis. All samples were stored below −70° C. until sample analysis. The plasma and tissue samples were processed using protein precipitation with acetonitrile (ACN) and analyzed with fit for purpose LC-MS/MS method. Pharmacokinetic parameters were calculated using the non-compartmental analysis tool of Phoenix WinNonlin® (Version 6.3).

MRC5 cells = experiment: Cell health and viability image-based study (fluorescence microscopy), MRC5; details: for IC50: Homo sapiens, MRC5, imaging; for toxicity in words, imaging, MRC5: up to 1000 μM
Procedure: (§1) The multiparametric assay developed surveys a number of elements of cell health simultaneously. Using a combination of 2 dyes, we are able to simultaneously measure nuclear morphology, membrane integrity and cell proliferation. All measurements are made on live cells after an incubation time of 24H. Hoechst 33342 is used to measure total number of cells, nuclear morphology and cell proliferation. The nuclear impermeable dye Syto17 is used to assess the nuclear membrane integrity by measuring the nuclear translocation of the dye when the membrane gets porous after incubation with a toxic compound. Cells were plated at a density of 1500 cells/25 al in well in a 384 wells plate the day before incubation with the drugs. The following day, 0.1 al of the source plate are added to the assay plate. Then, 25 al of a fluorophores mixture containing Hoechst 33342, Syto17 diluted in EMEM was added to each well. Plates are read after 48 h incubation in the ImageXpress instrument (Molecular Devices) using the appropriate filters. Images are analyzed using an application of MetaXpress software (Molecular Devices) and data are presented using Prism software. Low Signal Control (C23): 5 μM Staurosporine; High Signal Control (C24): DMSO.

P. aeruginosa PqsA = P. aeruginosa PqsA (Pseudomonas aeruginosa, UniProt Q9I4X3); experiment: PqsA inhibition, spectrophotometric assay with recombinant PqsA (anthranilyl-CoA formation at 365 nm); assay type: biochemical; details: uncompetitive with respect to anthranilate and CoA
Sequence of P. aeruginosa PqsA (Q9I4X3 whole entry): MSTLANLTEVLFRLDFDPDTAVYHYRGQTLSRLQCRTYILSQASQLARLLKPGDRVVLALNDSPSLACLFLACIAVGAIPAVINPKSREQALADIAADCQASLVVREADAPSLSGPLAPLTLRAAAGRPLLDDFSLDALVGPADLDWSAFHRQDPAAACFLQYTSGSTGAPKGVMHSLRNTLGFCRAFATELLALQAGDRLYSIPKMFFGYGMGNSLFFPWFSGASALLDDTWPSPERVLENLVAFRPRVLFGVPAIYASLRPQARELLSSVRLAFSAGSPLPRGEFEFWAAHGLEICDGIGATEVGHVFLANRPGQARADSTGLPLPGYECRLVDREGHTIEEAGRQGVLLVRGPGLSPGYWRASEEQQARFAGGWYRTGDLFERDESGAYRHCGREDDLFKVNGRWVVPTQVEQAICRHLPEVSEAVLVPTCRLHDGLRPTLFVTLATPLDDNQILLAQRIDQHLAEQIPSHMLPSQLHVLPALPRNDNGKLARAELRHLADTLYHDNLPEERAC
Procedure: PqsA inhibitors were evaluated using a quantitative spectrophotometric assay with recombinant PqsA, detecting formation of anthranilyl-CoA at 365 nm. See, e.g., Coleman et al. (2008) J. Bacteriol. 190, 1247. […] See, e.g., Morrison et al. Biochim. Biophys. Acta, Enzymol. 185, 269-286; Williams et al. (1979) Methods Enzymol. 63, 437. […] See, e.g., Qiao et al. (2007) J. Am. Chem. Soc. 129, 6350.
Reactions were performed at 37° C. in a 0.5 mL volume in a Varian Cary 100 UV-visible spectrophotometer with Cary WinUV software. Reaction mixtures contained 100 mM HEPES, pH 8.0, 0.2 mM dithiothreitol, 2 mM MgCl2, ˜3.3 μg PqsA protein (˜60 nM final), and depending on which substrate varied, 1 mM ATP (disodium salt), 0.5 mM coenzyme A (tri-lithium salt), 0.5 mM sodium anthranilate, and inhibitor (usually as a DMSO stock solution). Reactions were blanked and preincubated with all components except anthranilate at 37° C. for 1 min, then initiated by addition of anthranilate. Formation of anthraniloyl-CoA was monitored ance at 365 nm (ε=5.5 mM−1 cm−1) for 1 min. Data were analyzed using GraphPad Prism 6 software.

HepG2 cells [2] = experiment: Cell health and viability image-based study (fluorescence microscopy), HepG2; details: for IC50: Homo sapiens, HepG2, imaging; for toxicity in words, imaging, HepG2: up to 1000 μM
Procedure: as §1

HepG2 cells [3] = experiment: Cytotoxicity cell viability assay (CellTiter Glo), HepG2; assay type: cell-based; details: for toxicity in words, CellTiter Glo, HepG2: HepG2, luminescence readout, up to 1000 μM; for IC50: Homo sapiens, HepG2, 48 hrs, luminescence
Text: Promega Cell Titer-Glo utilizes the ATP dependent conversion of Luciferin to Oxyluciferin by a recombinant Luciferase in order to quantify the number of metabolically active cells in a sample. Quantification is possible because the number of RLU's detected is linearly proportional to the amount of ATP produced by metabolically active cells in culture at the time of lysis. Therefore, the relative cytotoxicity of each compound can be tested by quantifying the amount of ATP present in each microtiter well as compared to control groups. HepG2 and MRC5 were plated at a density of 1500 cells/25 al in well in the assay plate and allowed to settle overnight. 0.1 μL of compounds was then transferred from the source plate, into the cell assay plates. The cells were left to incubate with the compounds for 48 hrs, after which, 25 μL of Promega Cell Titer-Glo was added to each well, and allowed to incubate at room temperature with shaking for 20 minutes. RLU's for each well were then recorded on a BioTek Synergy NEO. DMSO was used as negative control

[4] = Hoechst 33342, read-out: Cell Count IC50, MRC5
[5] = Syto17, read-out: Nuclear membrane integrity IC50, MRC5
[6] = Hoechst 33342, read-out: Cell Count IC50, HepG2
[7] = Syto17, read-out: Nuclear membrane integrity IC50, HepG2

## Nc1ccccc1C(=O)NS(=O)(=O)OC[C@H]1O[C@@H](n2cnc3c(N)ncnc32)[C@H](O)[C@@H]1O [anthranilyl-AMS, Anthranilyl-AMS]
[1]; lung
  AUC lung: 63.9 μg · min/mL or μg · min/g
  Cmax lung: 2.0 ± 0.3 µg/mL
[1]; female, mouse, ip, lung, read-out: T1/2 lung
  half-life: 130 min
[1]; female, mouse, ip, plasma
  AUC: 5000 ng·h/mL
  Cmax: 12100 ± 2900 ng/mL
[1]; female, mouse, ip, plasma, read-out: T1/2 plasma
  half-life: 63.6 min
[1]; female, mouse, lung / plasma, ip, read-out: lung/plasma ratio
  Kp: 0.21
MRC5 cells; [4]
  IC50: 21.5 µM
MRC5 cells; [5]
  IC50: 25.5 µM
MRC5 cells
  toxicity in words, imaging, MRC5: significant toxicity in the tested range
P. aeruginosa PqsA
  mode of PqsA inhibition: competitive inhibitors with respect to ATP
HepG2 cells [2]; [6]
  IC50: 5.9 µM
HepG2 cells [2]; [7]
  IC50: 12.1 µM
HepG2 cells [2]
  toxicity in words, imaging, HepG2: significant toxicity in the tested range
HepG2 cells [3]
  toxicity in words, CellTiter Glo, HepG2: significant toxicity in the tested range
  IC50: 3.1 µM

## Nc1ccccc1C(=O)NS(=O)(=O)NC[C@H]1O[C@@H](n2cnc3c(N)ncnc32)[C@H](O)[C@@H]1O [anthranilyl-AMSN, Anthranilyl-AMSN]
MRC5 cells; [4]
  IC50: 58.8 µM
MRC5 cells; [5]
  IC50: 74.3 µM
MRC5 cells
  toxicity in words, imaging, MRC5: significant toxicity in the tested range
P. aeruginosa PqsA
  mode of PqsA inhibition: competitive inhibitors with respect to ATP
HepG2 cells [2]; [6]
  IC50: 6 µM
HepG2 cells [2]; [7]
  IC50: 56.3 µM
HepG2 cells [2]
  toxicity in words, imaging, HepG2: significant toxicity in the tested range
HepG2 cells [3]
  toxicity in words, CellTiter Glo, HepG2: significant toxicity in the tested range
  IC50: 19.2 µM
